Results on 4 compounds are retold here after ChEMBL document CHEMBL3046063, “Synthesis and antimicrobial activity of 5-chloroindoline-2,3-dione derivatives” (2012).

≈ marks a conversion by molar mass, not a printed value.

What all share (format): functional
The subject of assay [1] is Bacillus cereus. The assay is described as follows: Antimicrobial activity against Bacillus cereus ATCC 11778 after 24 hr by broth dilution method. As to conditions: ATCC 11778, 24 h. (Broth dilution looks for growth in wells or tubes with falling amounts of substance.)
Assay [2] has as its system Alternaria alternata. The assay is described as follows: Antimicrobial activity against Alternaria alternata ATCC 66868 after 24 hr by broth dilution method. Particulars: ATCC 66868, 24 h.
Assay [3] has as its system Klebsiella pneumoniae. The assay is described as follows: Antimicrobial activity against Klebsiella pneumoniae ATCC 13883 after 24 hr by broth dilution method. Particulars: ATCC 13883, 24 h.
In assay [4] the test system is Fusarium solani. The assay is described as follows: Antimicrobial activity against Fusarium solani ATCC 38136 after 24 hr by broth dilution method. Particulars: ATCC 38136, 24 h.
Assay [5] relates to Rhizoctonia solani. The assay is described as follows: Antimicrobial activity against Rhizoctonia solani ATCC 76131 after 24 hr by broth dilution method. Particulars: ATCC 76131, 24 h.
The test system of assay [6] is Staphylococcus aureus. Put plainly: Antimicrobial activity against Staphylococcus aureus ATCC 25923 after 24 hr by broth dilution method. As to conditions: ATCC 25923, 24 h.
For assay [7], the system named is Proteus mirabilis. Put plainly: Antimicrobial activity against Proteus mirabilis ATCC 49565 after 24 hr by broth dilution method. As to conditions: ATCC 49565, 24 h.
In assay [8] the test system is Aspergillus flavus. The assay is described as follows: Antimicrobial activity against Aspergillus flavus ATCC 15517 after 24 hr by broth dilution method. Particulars: ATCC 15517, 24 h.
The test system of assay [9] is Trichophyton longifusum. Put plainly: Antimicrobial activity against Trichophyton longifusum ATCC 22397 after 24 hr by broth dilution method. Particulars: ATCC 22397, 24 h.
For assay [10], the system named is Proteus vulgaris. Put plainly: Antimicrobial activity against Proteus vulgaris ATCC 13315 after 24 hr by broth dilution method. As to conditions: ATCC 13315, 24 h.
Assay [11] relates to Micrococcus luteus. The assay is described as follows: Antimicrobial activity against Micrococcus luteus ATCC 4698 after 24 hr by broth dilution method. Particulars: ATCC 4698, 24 h.
Assay [12] deals with Aspergillus niger. Put plainly: Antimicrobial activity against Aspergillus niger ATCC 9142 after 24 hr by broth dilution method. As to conditions: ATCC 9142, 24 h.
In assay [13] the test system is Staphylococcus epidermidis. The assay is described as follows: Antimicrobial activity against Staphylococcus epidermidis ATCC 12228 after 24 hr by broth dilution method. Particulars: ATCC 12228, 24 h.
For assay [14], the system named is Escherichia coli. The assay is described as follows: Antimicrobial activity against Escherichia coli ATCC 25922 after 24 hr by broth dilution method. Particulars: ATCC 25922, 24 h.
Assay [15] deals with Salmonella typhi. Put plainly: Antimicrobial activity against Salmonella enterica subsp. enterica serovar Typhi ATCC 19430 after 24 hr by broth dilution method. As to conditions: ATCC 19430, 24 h.
In assay [16] the test system is Pseudomonas aeruginosa. The assay is described as follows: Antimicrobial activity against Pseudomonas aeruginosa ATCC 10145 after 24 hr by broth dilution method. As to conditions: ATCC 10145, 24 h.
For assay [17], the system named is Aspergillus awamori. The assay is described as follows: Antimicrobial activity against Aspergillus awamori ATCC 22342 after 24 hr by broth dilution method. As to conditions: ATCC 22342, 24 h.
The subject of assay [18] is Bacillus spizizenii. The assay is described as follows: Antimicrobial activity against Bacillus subtilis subsp. spizizenii ATCC 6633 after 24 hr by broth dilution method. Particulars: ATCC 6633, 24 h.
For assay [19], the system named is Candida albicans. The assay is described as follows: Antimicrobial activity against Candida albicans ATCC 10231 after 24 hr by broth dilution method. Particulars: ATCC 10231, 24 h.
Assay [20] has as its system Microsporum canis. The assay is described as follows: Antimicrobial activity against Arthroderma otae ATCC 11622 after 24 hr by broth dilution method. As to conditions: ATCC 11622, 24 h.
In assay [21] the test system is Staphylococcus hominis. Put plainly: Antimicrobial activity against Staphylococcus hominis ATCC 27844 after 24 hr by broth dilution method. As to conditions: ATCC 27844, 24 h.
Assay [22] concerns Aspergillus fumigatus. Put plainly: Antimicrobial activity against Aspergillus fumigatus after 24 hr by broth dilution method.
Assay [23] has as its system Trichoderma viride. Put plainly: Antimicrobial activity against Hypocrea rufa ATCC 52440 after 24 hr by broth dilution method. As to conditions: ATCC 52440, 24 h.
In assay [24] the test system is Bacillus pumilus. Put plainly: Antimicrobial activity against Bacillus pumilus ATCC 14884 after 24 hr by broth dilution method. As to conditions: ATCC 14884, 24 h.

On to `O=C1Nc2ccc(Cl)cc2/C1=N/N1C(=O)C(Cl)C1c1ccccc1` (stereo unspecified), for which the MIC is 37.5 µg/mL (≈ 104 µM) in assay [1]; 18.8 µg/mL (≈ 52.1 µM) in [2]; 37.5 µg/mL (≈ 104 µM) in [3]; 18.8 µg/mL (≈ 52.1 µM) in assay [4]; 18.8 µg/mL (≈ 52.1 µM) in [5]; 75 µg/mL (≈ 208 µM) in [6]. Further, the MIC in assay [7] turned out to be 37.5 µg/mL (≈ 104 µM); in assay [8] it was 18.8 µg/mL (≈ 52.1 µM); in assay [9], 37.5 µg/mL (≈ 104 µM); in [10], 37.5 µg/mL (≈ 104 µM); in assay [11] it was 37.5 µg/mL (≈ 104 µM); in assay [12], 18.8 µg/mL (≈ 52.1 µM). Besides, the MIC turned out to be 37.5 µg/mL (≈ 104 µM) in [13]; 37.5 µg/mL (≈ 104 µM) in assay [14]; 75 µg/mL (≈ 208 µM) in assay [15]; 37.5 µg/mL (≈ 104 µM) in assay [16]; 37.5 µg/mL (≈ 104 µM) in [17]; 37.5 µg/mL (≈ 104 µM) in assay [18]. For the same compound, the MIC was determined as 37.5 µg/mL (≈ 104 µM) in assay [19]; 37.5 µg/mL (≈ 104 µM) in [20]; 75 µg/mL (≈ 208 µM) in assay [21]; 37.5 µg/mL (≈ 104 µM) in [22]; 18.8 µg/mL (≈ 52.1 µM) in [23]; 37.5 µg/mL (≈ 104 µM) in [24].
For the compound `O=C1Nc2ccc(Cl)cc2/C1=N/N1C(=O)C(Cl)C1c1ccccc1Cl` (stereo unspecified), the minimal inhibitory concentration (MIC) was found to be 300 µg/mL (≈ 760 µM) in assay [1]; 150 µg/mL (≈ 380 µM) in [2]; 300 µg/mL (≈ 760 µM) in assay [3]; 150 µg/mL (≈ 380 µM) in assay [4]; 150 µg/mL (≈ 380 µM) in [5]; 300 µg/mL (≈ 760 µM) in assay [6]. For the same compound, the MIC in [7] is 300 µg/mL (≈ 760 µM); in assay [8] it was 150 µg/mL (≈ 380 µM); in [9] it was 150 µg/mL (≈ 380 µM); in [10] it was 150 µg/mL (≈ 380 µM); in assay [11], 150 µg/mL (≈ 380 µM); in [12], 150 µg/mL (≈ 380 µM). Moreover, the MIC in assay [13] is 150 µg/mL (≈ 380 µM); in assay [14], 150 µg/mL (≈ 380 µM); in assay [15], 300 µg/mL (≈ 760 µM); in [16], 300 µg/mL (≈ 760 µM); in [17] it was 150 µg/mL (≈ 380 µM); in [18], 150 µg/mL (≈ 380 µM). The MIC in [19] was 75 µg/mL (≈ 190 µM); in [20] it was 75 µg/mL (≈ 190 µM); in assay [21], 300 µg/mL (≈ 760 µM); in [22], 150 µg/mL (≈ 380 µM); in assay [23], 150 µg/mL (≈ 380 µM); in assay [24], 300 µg/mL (≈ 760 µM).
For `O=C1Nc2ccc(Cl)cc2/C1=N/N1C(=O)C(Cl)C1c1ccc(Cl)cc1` (stereo unspecified), the MIC in [1] is 18.8 µg/mL (≈ 47.5 µM); in assay [2] it was 9.37 µg/mL (≈ 23.7 µM); in assay [3], 9.37 µg/mL (≈ 23.7 µM); in assay [4], 4.68 µg/mL (≈ 11.9 µM); in assay [5], 9.37 µg/mL (≈ 23.7 µM); in [6] it was 18.8 µg/mL (≈ 47.5 µM). The MIC came to 18.8 µg/mL (≈ 47.5 µM) in assay [7]; 9.37 µg/mL (≈ 23.7 µM) in assay [8]; 4.68 µg/mL (≈ 11.9 µM) in assay [9]; 9.37 µg/mL (≈ 23.7 µM) in assay [10]; 18.8 µg/mL (≈ 47.5 µM) in [11]; 4.68 µg/mL (≈ 11.9 µM) in assay [12]. The MIC turned out to be 18.8 µg/mL (≈ 47.5 µM) in [13]; 18.8 µg/mL (≈ 47.5 µM) in assay [14]; 9.37 µg/mL (≈ 23.7 µM) in assay [15]; 18.8 µg/mL (≈ 47.5 µM) in [16]; 4.68 µg/mL (≈ 11.9 µM) in [17]; 9.37 µg/mL (≈ 23.7 µM) in assay [18]. Further, the MIC in assay [19] was determined as 4.68 µg/mL (≈ 11.9 µM); in [20] it was 9.37 µg/mL (≈ 23.7 µM); in assay [21], 9.37 µg/mL (≈ 23.7 µM); in [22], 4.68 µg/mL (≈ 11.9 µM); in [23] it was 4.68 µg/mL (≈ 11.9 µM); in [24], 9.37 µg/mL (≈ 23.7 µM).
Take `COc1cccc(C2C(Cl)C(=O)N2/N=C2\C(=O)Nc3ccc(Cl)cc32)c1` (stereo unspecified): the MIC in [1] was 37.5 µg/mL (≈ 96.1 µM); in [2] it was 18.8 µg/mL (≈ 48 µM); in [3], 37.5 µg/mL (≈ 96.1 µM); in assay [4], 37.5 µg/mL (≈ 96.1 µM); in assay [5] it was 18.8 µg/mL (≈ 48 µM); in assay [6], 75 µg/mL (≈ 192 µM). Further, the MIC in assay [7] was found to be 75 µg/mL (≈ 192 µM); in [8], 18.8 µg/mL (≈ 48 µM); in assay [9], 18.8 µg/mL (≈ 48 µM); in assay [10], 75 µg/mL (≈ 192 µM); in [11] it was 37.5 µg/mL (≈ 96.1 µM); in [12] it was 37.5 µg/mL (≈ 96.1 µM). The MIC was 37.5 µg/mL (≈ 96.1 µM) in assay [13]; 75 µg/mL (≈ 192 µM) in assay [14]; 75 µg/mL (≈ 192 µM) in assay [15]; 37.5 µg/mL (≈ 96.1 µM) in assay [16]; 37.5 µg/mL (≈ 96.1 µM) in assay [17]; 75 µg/mL (≈ 192 µM) in assay [18]. Besides, the MIC came out at 18.8 µg/mL (≈ 48 µM) in assay [19]; 37.5 µg/mL (≈ 96.1 µM) in assay [20]; 75 µg/mL (≈ 192 µM) in [21]; 18.8 µg/mL (≈ 48 µM) in assay [22]; 37.5 µg/mL (≈ 96.1 µM) in [23]; 75 µg/mL (≈ 192 µM) in assay [24].

The term MIC denotes the lowest concentration found to suppress growth. Low values mean a more susceptible organism, high ones a less susceptible organism.
